Consider eleven compounds from ChEMBL document CHEMBL1201862, “PubChem BioAssay data set” (2004).

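Exposure lasted 48 hours, with cells grown in 96-well plates and compounds tested at five concentrations. The concentration for 50% growth inhibition is given as GI50.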 Active and inactive are the calls of the source. Rule as the data show it: active = GI50 up to about 1.1 µM and inactive = higher. Bounds are passed on as bounds.

Some test systems named below: A498; OVCAR-8; HOP-62; HCT-15; NCI-H23; MDA-MB-231; Hs-578T; KM12; BT-549; IGROV-1; MDA-MB-435; SK-MEL-2; UO-31; OVCAR-3; DU-145; K562; OVCAR-4; ACHN; HL-60; MCF7.
Test in all cases: NCI tumour cell line growth inhibition, 48 h

As to `Cc1ccc(/N=N/c2c(O)c(C(=O)O)cc3ccccc23)c(S(=O)(=O)O)c1`, the GI50 in the experiment with A498 is > 100 µM (inactive); in the experiment with OVCAR-8, > 100 µM (inactive); in the experiment with HOP-62, > 100 µM (inactive); in the experiment with HCT-15 it was greater than 100 µM; with NCI-H23 it was > 100 µM (inactive); with MDA-MB-231, > 100 µM (inactive). The GI50 in the experiment with Hs-578T, in the experiment with KM12, in the experiment with BT-549, in the experiment on IGROV-1, with MDA-MB-435 and with SK-MEL-2 was > 100 µM (inactive) throughout. The GI50 in the experiment on UO-31, in the experiment on OVCAR-3, with DU-145, with K562, with OVCAR-4 and in the experiment with ACHN was > 100 µM (inactive) throughout.

For `Cc1oc2nc(N(C)C)nc(Cl)c2c1C`, the GI50 with A498 was 29.9 µM (inactive); with OVCAR-8, > 100 µM (inactive); in the experiment with HOP-62 it was > 100 µM (inactive); with HCT-15, greater than 100 µM; with NCI-H23, > 100 µM (inactive); in the experiment with MDA-MB-231, > 100 µM (inactive). In addition, the GI50 with Hs-578T is > 100 µM (inactive); with KM12, > 100 µM (inactive); in the experiment on BT-549, > 100 µM (inactive); in the experiment with IGROV-1, 49.8 µM (inactive); in the experiment on MDA-MB-435, > 100 µM (inactive); with SK-MEL-2, > 100 µM (inactive). Besides, the GI50 was 26.8 µM (inactive) in the experiment on UO-31; > 100 µM (inactive) in the experiment with OVCAR-3; > 100 µM (inactive) in the experiment on DU-145; > 100 µM (inactive) with K562; 32.1 µM (inactive) in the experiment with OVCAR-4; > 100 µM (inactive) with HL-60. Moreover, in the experiment on ACHN, the GI50 is > 100 µM (inactive).

In the case of `O=C1CCCCC(=O)Nc2ccccc2N1`, the GI50 with A498 was > 100 µM (inactive); in the experiment with OVCAR-8, > 100 µM (inactive); in the experiment on HOP-62, > 100 µM (inactive); in the experiment on HCT-15, greater than 100 µM; with NCI-H23, > 100 µM (inactive); in the experiment with MDA-MB-231, > 100 µM (inactive). Also, the GI50 in the experiment on Hs-578T, with KM12, in the experiment on BT-549, with IGROV-1, with MDA-MB-435 and with SK-MEL-2 was > 100 µM (inactive) throughout. Further, the GI50 in the experiment on UO-31, in the experiment with OVCAR-3, in the experiment on DU-145, in the experiment on K562, in the experiment on OVCAR-4 and in the experiment with HL-60 was > 100 µM (inactive) throughout. In the experiment with ACHN, the GI50 was > 100 µM (inactive).

With `CC[C@](C)(O)C(=O)O[C@H]1C(=O)O[C@@H]2C[C@H]3C(C)=CC(=O)[C@@H](O)[C@]3(C)[C@H]3[C@@]4(O)OC[C@]32[C@@H]1[C@@H](C)[C@H]4O` [GLAUCARUBINONE], the GI50 in the experiment with A498 was 0.32 µM (active); with OVCAR-8 it was 0.0753 µM (active); with HOP-62, 0.0794 µM (active); with HCT-15 it was 0.0885 µM; in the experiment with NCI-H23, 0.0796 µM (active); with MDA-MB-231, 0.946 µM (active). Besides, the GI50 with Hs-578T is 0.167 µM (active); in the experiment with KM12, 0.0604 µM (active); with BT-549, 0.229 µM (active); in the experiment on IGROV-1, 0.05 µM (active); in the experiment with MDA-MB-435 it was 1.4 µM (inactive); in the experiment on SK-MEL-2 it was 0.0625 µM (active). The GI50 in the experiment with UO-31 was 0.378 µM (active); in the experiment on OVCAR-3 it was 0.0982 µM (active); in the experiment with DU-145, 0.824 µM (active); with K562 it was 0.05 µM (active); in the experiment on OVCAR-4, 0.321 µM (active); with HL-60 it was 0.05 µM (active). For the same compound, the GI50 in the experiment on ACHN was 0.292 µM (active).

With `C/C(=N\c1cc(Cl)cc(Cl)c1)c1ccncc1`, the GI50 in the experiment with A498 is > 100 µM (inactive); in the experiment on OVCAR-8 it was > 100 µM (inactive); in the experiment with HOP-62 it was > 100 µM (inactive); with HCT-15, greater than 100 µM; with NCI-H23, > 100 µM (inactive); in the experiment with MDA-MB-231 it was > 100 µM (inactive). Also, the GI50 in the experiment on Hs-578T, in the experiment with KM12, in the experiment with BT-549, in the experiment with IGROV-1, with MDA-MB-435 and in the experiment on SK-MEL-2 was > 100 µM (inactive) each time. The GI50 in the experiment on MCF7 was > 100 µM (inactive); in the experiment on UO-31 it was 89.7 µM (inactive); in the experiment with OVCAR-3, > 100 µM (inactive); in the experiment with DU-145, > 100 µM (inactive); with K562 it was > 100 µM (inactive); in the experiment on OVCAR-4, > 100 µM (inactive). Besides, the GI50 in the experiment on ACHN is > 100 µM (inactive).

For the compound `O=C1NN=C(c2c[nH]c3ccccc23)CC1NCc1ccccc1` (centres undefined), the GI50 with A498 is > 100 µM (inactive); in the experiment on OVCAR-8 it was > 100 µM (inactive); with HOP-62, > 100 µM (inactive); in the experiment on HCT-15, greater than 100 µM; with NCI-H23 it was > 100 µM (inactive); in the experiment on MDA-MB-231 it was > 100 µM (inactive). In addition, the GI50 was > 100 µM (inactive) with Hs-578T; > 100 µM (inactive) in the experiment on KM12; > 100 µM (inactive) in the experiment with BT-549; 1.01 µM (active) with IGROV-1; > 100 µM (inactive) in the experiment on MDA-MB-435; > 100 µM (inactive) in the experiment on SK-MEL-2. The GI50 in the experiment on UO-31, in the experiment on OVCAR-3, with DU-145, in the experiment on K562, with HL-60 and with ACHN was > 100 µM (inactive) in each case.

With `CCCC(C)c1c(Cl)nc(Cl)nc1Cl` (centres undefined), the GI50 in the experiment on OVCAR-8 was 19.1 µM (inactive); in the experiment with HOP-62 it was 8.36 µM (inactive); in the experiment with HCT-15, 7.38 µM; in the experiment with NCI-H23, 3.18 µM (inactive); in the experiment on MDA-MB-231, 9.27 µM (inactive); with Hs-578T, 9.38 µM (inactive). The GI50 in the experiment on KM12 is 2.47 µM (inactive); in the experiment on BT-549, 1.99 µM (inactive); in the experiment on IGROV-1, 14.7 µM (inactive); in the experiment with MDA-MB-435 it was 3.75 µM (inactive); in the experiment on SK-MEL-2 it was 23.9 µM (inactive); in the experiment on MCF7, 8.55 µM (inactive). For the same compound, the GI50 was 19.5 µM (inactive) in the experiment on UO-31; 9.57 µM (inactive) with OVCAR-3; 15 µM (inactive) in the experiment on DU-145; 3.37 µM (inactive) in the experiment on K562; 17.1 µM (inactive) in the experiment with OVCAR-4; 2.1 µM (inactive) in the experiment with HL-60. Besides, the GI50 with ACHN was 4.21 µM (inactive).

For `C=C(COC(=O)C(C)C)[C@H]1Oc2ccc(C(C)=O)cc2[C@@H]1OC(=O)C(C)C`, the GI50 was > 100 µM (inactive) in the experiment on OVCAR-8; > 100 µM (inactive) in the experiment with HOP-62; greater than 100 µM with HCT-15; > 100 µM (inactive) in the experiment on NCI-H23; > 100 µM (inactive) with MDA-MB-231; 42.6 µM (inactive) in the experiment on Hs-578T. For the same compound, the GI50 with KM12, with BT-549, in the experiment on IGROV-1, in the experiment with MDA-MB-435, in the experiment on SK-MEL-2 and in the experiment with MCF7 was > 100 µM (inactive) throughout. The GI50 with UO-31 is > 100 µM (inactive); in the experiment with OVCAR-3 it was > 100 µM (inactive); in the experiment with DU-145, > 100 µM (inactive); with K562, > 100 µM (inactive); with OVCAR-4, > 100 µM (inactive); with HL-60 it was 53.6 µM (inactive). Further, the GI50 in the experiment on ACHN was > 100 µM (inactive).

In the case of `Cc1cc(Cl)ccc1NC(=O)/C(CC(=O)CC(c1ccccc1)c1c(O)c2ccccc2oc1=O)=N\O` (centres undefined), the GI50 in the experiment on OVCAR-8 is > 100 µM (inactive); in the experiment with HOP-62 it was > 100 µM (inactive); in the experiment on HCT-15, greater than 100 µM; in the experiment with NCI-H23 it was > 100 µM (inactive); in the experiment with MDA-MB-231, > 100 µM (inactive); in the experiment with Hs-578T, > 100 µM (inactive). The GI50 in the experiment on KM12, with BT-549, in the experiment on IGROV-1, with MDA-MB-435, in the experiment on SK-MEL-2 and with MCF7 was > 100 µM (inactive) each time. The GI50 with UO-31 was 65 µM (inactive); in the experiment on OVCAR-3, > 100 µM (inactive); in the experiment with DU-145, > 100 µM (inactive); in the experiment with OVCAR-4 it was > 100 µM (inactive); in the experiment with HL-60 it was > 100 µM (inactive); in the experiment on ACHN, > 100 µM (inactive).

As for `COc1ccc(C2N(c3ccc(F)cc3)C(=O)N3C(c4ccc(OC)cc4)N(c4ccc(F)cc4)C(=O)N23)cc1` (centres undefined), the GI50 was > 100 µM (inactive) in the experiment with A498; > 100 µM (inactive) in the experiment with OVCAR-8; > 100 µM (inactive) in the experiment on HOP-62; greater than 100 µM with HCT-15; > 100 µM (inactive) in the experiment on NCI-H23; > 100 µM (inactive) in the experiment with MDA-MB-231. Besides, the GI50 in the experiment with Hs-578T, in the experiment with KM12, with BT-549, in the experiment with IGROV-1, in the experiment on MDA-MB-435 and in the experiment on SK-MEL-2 was > 100 µM (inactive) throughout. Further, the GI50 with UO-31, with OVCAR-3, in the experiment with DU-145, in the experiment on OVCAR-4, with HL-60 and with ACHN was > 100 µM (inactive) in each case.

As to `CCOP(=O)(OCC)/C(C#N)=C/c1cccn1C`, the GI50 with A498 is > 100 µM (inactive); in the experiment on OVCAR-8, > 100 µM (inactive); in the experiment with HOP-62, > 100 µM (inactive); in the experiment on HCT-15, greater than 100 µM; in the experiment with NCI-H23, > 100 µM (inactive); in the experiment with MDA-MB-231, > 100 µM (inactive). Further, the GI50 in the experiment with Hs-578T, in the experiment with KM12, in the experiment with BT-549, in the experiment with IGROV-1, with MDA-MB-435 and with SK-MEL-2 was > 100 µM (inactive) throughout. The GI50 in the experiment with MCF7 was > 100 µM (inactive); in the experiment with UO-31, 41.6 µM (inactive); in the experiment on OVCAR-3, > 100 µM (inactive); in the experiment on DU-145 it was > 100 µM (inactive); in the experiment on OVCAR-4 it was > 100 µM (inactive); with ACHN, > 100 µM (inactive).
